Data published in patent publication US7351800B2, “Stabilized albumin preparations” (Nipro Corporation, priority 2002, dated 2008).

Assays:
Format in all cases: physicochemical
HSA [1] = biological target: T1, HSA (Homo sapiens, UniProt P02768); test: Differential scanning calorimetry (DSC) of HSA solutions: thermal stabilization effect; settings: 100-μM HSA, 500-μM agent
Method: Each of various medical agents was added to 100-μM HSA ( 1/15 mM phosphate buffer, pH 7.4) and then the following medical agents under test were prepared:
The stabilization effect was evaluated in terms of a thermodynamic viewpoint by calculating a thermal transition temperature (Tm) and a change ΔHcal in enthalpy of transition from a differential scanning calorimetry (DSC) measurement on those medical agents under test (1) to (4). If the thermal transition temperature (Tm) increases, from the thermodynamic viewpoint, it means an increase in stability of the medical agents under test. In addition, if the change ΔHcal in enthalpy of transition increases, it means an increase in stability of the medical agents transition under test.
Those values were analyzed by a DSC thermogram of the HSA solution. Differential scanning calorimetry (DSC method)
For the DSC, measurement was made using the MC-2 differential scanning calorimeter manufactured by MicroCal Co., Ltd. The measuring conditions are shown below.
Albumin content: 100 μM Solvent: 1/15 M phosphate buffer (pH 7.4)
Reversibility of thermal denaturation was confirmed by cooling the albumin solution after first measurement and then heating the albumin solution again. […]

HSA [2] = biological target: T1, HSA; test: Carbonyl content in HSA after oxidation with AAPH; settings: oxidation with excess AAPH; compared with medical agent under test without addition
Method: An excess amount of an oxidizing agent, 2,2′-azobis-(2-amidinopropane) dihydrochloride (AAPH) was added to HSA to oxidize the HSA. After the oxidation for a predetermined time, the carbonyl content in HSA was determined.

HSA [3] = biological target: T1, HSA; test: Aggregate-inhibition effect under heat with medium-chain fatty acids other than sodium caprylate (electrophoresis); settings: 5-fold concentration (120 μM) of fatty acid added to 24-μM HSA phosphate buffer (67 mM, pH 7.4)
Method: The measurement samples used were such that 5-fold concentrations (120 μM) of the respective fatty acids were each added to a 24-μM HSA phosphate buffer (67 mM, pH 7.4).

T1 sequence (P02768 25-609): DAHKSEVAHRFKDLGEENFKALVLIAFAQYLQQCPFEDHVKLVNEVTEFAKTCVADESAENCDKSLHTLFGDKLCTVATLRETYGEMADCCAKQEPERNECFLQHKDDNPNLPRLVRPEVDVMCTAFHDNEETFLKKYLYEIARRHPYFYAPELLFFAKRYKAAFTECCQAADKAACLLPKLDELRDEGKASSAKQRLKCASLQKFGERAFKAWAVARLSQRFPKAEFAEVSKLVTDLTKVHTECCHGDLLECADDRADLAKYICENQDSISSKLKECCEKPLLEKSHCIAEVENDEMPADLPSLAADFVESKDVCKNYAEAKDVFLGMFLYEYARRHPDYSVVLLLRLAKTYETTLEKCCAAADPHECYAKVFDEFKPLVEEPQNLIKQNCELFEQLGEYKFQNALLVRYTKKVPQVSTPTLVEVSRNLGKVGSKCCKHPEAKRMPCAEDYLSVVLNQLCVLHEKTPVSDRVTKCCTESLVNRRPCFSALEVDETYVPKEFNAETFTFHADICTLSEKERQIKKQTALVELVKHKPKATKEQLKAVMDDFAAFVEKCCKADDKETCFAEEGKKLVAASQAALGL

Row | Compound | change in Tm compared with HSA solution without added agent (in words) (HSA [1]) | change in ΔHcal compared with HSA solution without added agent (in words) (HSA [1]) | carbonyl content in HSA (degree of oxidation) (HSA [2]) | aggregate-inhibition effect under heat (HSA [3])
1 | CSCC[C@H](NC(C)=O)C(=O)O [N-acetyl methionine] | slight increase in Tm | increase in change ΔHcal in enthalpy transition | significant decrease in carbonyl content | –
2 | CCCCCC(=O)O [caproic acid] | – | – | – | slightly observed
3 | CCCCCCC(=O)O [enanthic acid] | – | – | – | slightly observed
